Consider one compound from patent US20070003987A1, “Screening method for substance binding to merozoite surface protein-1/42” (priority 2003, published 2007).

Assay [1] concerns the target T1, P. vivax MSP133 (Plasmodium vivax, UniProt Q02569, A1444G/T1362K/T1451N).
T1 sequence (Q02569 1325-1618 T1362K/A1444G/T1451N): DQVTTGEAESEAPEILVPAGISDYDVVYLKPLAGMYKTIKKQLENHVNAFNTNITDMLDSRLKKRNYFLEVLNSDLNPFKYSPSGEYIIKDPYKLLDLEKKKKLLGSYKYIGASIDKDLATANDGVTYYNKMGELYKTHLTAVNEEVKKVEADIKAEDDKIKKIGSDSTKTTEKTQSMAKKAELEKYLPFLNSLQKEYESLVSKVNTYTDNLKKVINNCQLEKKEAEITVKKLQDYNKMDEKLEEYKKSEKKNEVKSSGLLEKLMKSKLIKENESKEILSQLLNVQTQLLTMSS
Put plainly: isothermal titration calorimetry. In kind it is binding. The procedure:
P. vivax MSP133 was expressed using the P. vivax MSP142 clone, above, as a template for PCR, followed by ligation of the product into vector pET30Xa/LIC. The sequence runs from Asp 1325 to Ser 1618 (Accession number A39401) following the N-terminal purification tag. The vector was used to transform BL21(DE3)pLysS cells. For expression, a culture of the transformed cells was induced at an OD600 of 0.6-0.8 at 37° C. with 1 mM IPTG for 3 h. The cells were harvested by centrifugation and the cell pellet lysed using the Bugbuster protein extraction reagent (Novagen). The cell lysate was cleared by centrifugation and the supernatant loaded directly onto a Ni-NTA column. The column was washed with 10 volumes of 50 mM NaH2PO4, 300 mM NaCl, 10 mM imidazole, pH 8.0, then with 6 column volumes of the same buffer containing 30 mM imidazole, and finally eluted with 3 column volumes of the buffer with 250 mM imidazole. The eluted protein was then loaded directly onto a Superdex 200 (26/600) column (Amersham) equilibrated in 20 mM Tris-HCl, 250 mM NaCl, pH 8.0 and purified by gel filtration. The fractions containing MSP-133 were pooled and dialysed extensively with PBS.
In addition to the fluorimetry, isothermal titration calorimetry (ITC) was performed using a Microcal omega VP-ITC (MicroCal Inc., Northampton, Mass.). The proteins were dialyzed extensively against the ITC buffer (phosphate buffered saline, pH 7.4). All experiments were performed at 25° C. The cell, 1.425 ml, contained 30 μM MSP142 or MSP133 and these were titrated by injection of a total of 290 μl of 600 μM suramin. The heat of dilution of suramin into buffer was determined in control experiments. The data were fitted by least-squares methods using the evaluation software, Microcal Origin version 5.0 provided by the manufacturer. Each experiment was performed twice.
On the technique in general: Isothermal titration calorimetry measures the heat released or taken up as one component is titrated into another.

In assay [2] the target is MSP142 (Plasmodium falciparum, UniProt Q8I0U8). Put plainly: P. falciparum MSP1 secondary processing assay (merozoites, Western blot). In kind it is biochemical. Set-up: Merozoites were purified as described previously; endogenous in cells; host or cells: purified P. falciparum merozoites released from mature schizonts. As for the experimental part: Merozoites were purified as described previously (Blackman 1994 Methods Cell Biol. 45, 213-220) after release from mature schizonts into growth medium supplemented with 2 mM EGTA. Merozoites were harvested by centrifugation, followed by sequential passage through pre-wetted filters of 3 and 1.2 μm pore size. Merozoites were washed in Ca^2+- and Mg^2+-free PBS in the presence of protease inhibitors (leupeptin, antipain and aprotinin at 10 μg ml^−1). The merozoites were then washed and resuspended in 50 mM Tris-HCl pH 7.2, 5 mM CaCl2, 1 mM MgCl2, plus leupeptin, antipain and aprotinin at 10 μg ml^−1 (processing buffer), and divided into 18 μl aliquots. Two microlitres of either diluted compound or reaction buffer were added and the samples incubated for 1 h at 37° C. Control assays included those in which processing was prevented by immediate addition of either SDS, 1 mM PMSF or 5 mM EGTA; and those in the absence of compound or in the presence of 0.2 mM TLCK (tosyl-L-lysyl chloromethyl ketone). After 1 h the reaction was stopped, and MSP1 processing was analysed using a Western blot-based assay (Blackman 1994 Methods Cell Biol. 45, 213-220). The blots were probed with a rabbit anti-MSP133/MSP142 antibody and the bands corresponding to MSP142 and MSP133 polypeptides were visualised by enhanced chemiluminescence.
Purified merozoites were incubated in the presence or absence of suramin or NTS and polypeptides subjected to SDS-PAGE and Western blotting.

The term Kd denotes the equilibrium constant for the complex coming apart. Turning to `Cc1ccc(C(=O)Nc2ccc(S(=O)(=O)O)c3cc(S(=O)(=O)O)cc(S(=O)(=O)O)c23)cc1NC(=O)c1cccc(NC(=O)Nc2cccc(C(=O)Nc3cc(C(=O)Nc4ccc(S(=O)(=O)O)c5cc(S(=O)(=O)O)cc(S(=O)(=O)O)c45)ccc3C)c2)c1` [suramin], binding in assay [1] was put at a Kd of 1500 ± 500 nM. In addition, in assay [1] (ITC), the “binding to MSP133 weaker than to MSP142” value came out at 5 fold. Moreover, the AH value in assay [1] (ITC, 25° C.) is 12 ± 1 kcal/mol. For the same compound, the “inhibition of MSP142 secondary processing” value in assay [2] (200 μM, 1 h at 37° C.) is recorded as “absence of MSP133”. For the same compound, in assay [2] (1.25-200 μM suramin), the “dose dependence of inhibition of MSP142 processing (FIG. 3B)” value was “dose-dependent”.
